Here are results for seven compounds from patent publication US10440955B2, “Methods comprising a biocidal polyamine” (Curza Global, LLC, priority 2013, dated 2019).

Values joined by “and” are separate entries in the source; they are usually repeats but may differ in a detail not shown here. Equal entries are not always repeated. Structures can show the parent of a compound that is named as a salt. Where two headings read alike, the source gives them in different places. Bounds are passed on as bounds.

Assay [1] deals with P. aeruginosa biofilms. Kind of assay: EBEC, high number biofilms on PEEK membranes, 10^9 to 10^2 CFU/PEEK membrane in 24 hours. Type of assay: cell-based. As to conditions: Pseudomonas aeruginosa; Table 3B c3; group head missing; read-out: MICs (μg/mL) II: P. aeruginosa. The method, then:
(§1) In addition to determining the MIC and the MBEC of polyamine compounds against planktonic bacteria and low number biofilms, our group wanted to determine the efficacy of polyamine compounds against high number biofilms. To do so, biofilms were grown on the surface of polyetheretherketone (PEEK) membranes using a membrane biofilm reactor. This reactor is similar to the CDC biofilm reactor, but rather than growing biofilms on coupon surfaces, the reactor was modified to hold PEEK membranes. In short, to grow biofilms within this system, 500 mL of brain heart infusion (BHI) broth were inoculated with 1 mL of a 0.5 McFarland. The reactor was placed on a hot plate set at 34° C. and the bacteria were grown under batch conditions for 24 hours. Following this protocol, biofilms typically grow to 10^9 CFU/PEEK membrane. […] A solution of 10% BHI was then flowed through the reactor at a rate of 6.94 mL/min for an additional 24 hours. PEEK membranes were then removed and placed into 2 mL of CAMHB that contained a desired concentration of polyamine compound or antibiotic. The EBEC was defined as the concentration of antimicrobial required to reduce a biofilm from approximately 10^9 CFU/PEEK membrane to approximately 10^2 CFU/PEEK membrane in a 24-hour period.

For assay [2], the system named is MRSA biofilms. Kind of assay: MBEC, MBEC Inoculation Tray (Innovotech), to 10^2 CFU/peg in 24 hours. The class given is cell-based. The note with it: Staphylococcus aureus, read-out: MICs (μg/mL): MRSA.
Assay [3] has as its system MRSA biofilms. Put plainly: EBEC, high number biofilms on PEEK membranes, 10^9 to 10^2 CFU/PEEK membrane in 24 hours. The class given is cell-based. The note with it: Staphylococcus aureus, read-out: MICs (μg/mL) II: MRSA.
For assay [4], the system named is A. baumannii biofilms. Put plainly: MBEC, MBEC Inoculation Tray (Innovotech), to 10^2 CFU/peg in 24 hours. Type of assay: cell-based, Acinetobacter baumannii. The note with it: Table 3B c1, group head missing, probably MBEC.
Assay [5] relates to P. aeruginosa. Kind of assay: MIC, 96-well CAMHB, 10^5 to 10^2 CFU/mL in 24 hours. The class given is cell-based, Pseudomonas aeruginosa. As to conditions: for MIC: Pseudomonas aeruginosa. In a few lines: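 Broth microdilution in CAMHB with about 5×10^5 CFU/mL inoculum, incubated 24 h at 37 °C with graded polyamine compound concentrations. Surviving CFU/mL determined by plating each well on TSA for 24 h at 37 °C; n=8 per concentration.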

The test system of assay [6] is A. baumannii biofilms. Put plainly: EBEC, high number biofilms on PEEK membranes, 10^9 to 10^2 CFU/PEEK membrane in 24 hours. Type of assay: cell-based, Acinetobacter baumannii. As to conditions: Table 3B c4, group head missing.
Assay [7] has as its system A. baumannii biofilms. Described as above. The class given is cell-based, Acinetobacter baumannii. On the procedure:
as §1
In addition to determining the MIC and the MBEC of compounds against planktonic bacteria and low number biofilms, the efficacy of the compounds of the invention against high number biofilms is determined. To do so, biofilms are grown on the surface of PEEK membranes using a membrane biofilm reactor (Williams, D. L., Haymond, B. S. & Bloebaum, R. D. Use of delrin plastic in a modified CDC biofilm reactor. Res J Microbiol 6, 425-429 (2011); Williams, D. L., Woodbury, K. L., Haymond, B. S., Parker, A. E. & Bloebaum, R. D. A modified CDC biofilm reactor to produce mature biofilms on the surface of PEEK membranes for an in vivo animal model application. Curr Microbiol 62, 1657-1663 (2011); Williams, D. L. et al., In Vivo Efficacy of a Silicone—Cationic Steroid Antimicrobial Coating to Prevent Implant-Related Infection. Biomaterials 33, 8641-8656 (2012); Williams, D. L. et al., Experimental model of biofilm implant-related osteomyelitis to test combination biomaterials using biofilms as initial inocula. J Biomed Mat Res A 100, 1888-1900 (2012)). This reactor is similar to the CDC biofilm reactor, but rather than growing biofilms on coupon surfaces, the reactor was modified to hold PEEK membranes. In short, to grow biofilms within this system, 500 mL of brain heart infusion (BHI) broth is inoculated with 1 mL of a 0.5 McFarland. The reactor is placed on a hot plate set at 34° C. and the bacteria grown under batch conditions for 24 hours. A solution of 10% BHI will then be flowed through the reactor at a rate of 6.94 mL/min for an additional 24 hours. Following this protocol, biofilms typically grow to 10^9 CFU/PEEK membrane. PEEK membranes is removed and placed into 2 mL of CAMHB that contain a desired concentration of the test compound. The EBEC is defined as the concentration of antimicrobial required to reduce a biofilm from approximately 10^9 CFU/PEEK membrane to approximately 10^2 CFU/PEEK membrane in a 24-hour period.
EBEC data were collected to determine the efficacy of CZ-52, CZ-58 and traditional antibiotics against high number biofilms containing approximately 10^9 CFU grown on the surface of a polyetheretherketone (PEEK) membrane. […] In contrast, at 250 μg/mL CZ-52 was able to reduce MRSA biofilms by greater than 7 log10 units in a 24-hour period. Although the MIC of CZ-58 was lower against MRSA compared to A. baumannii, CZ-58 had greater activity against biofilms of A. baumannii than against MRSA biofilms in the EBEC assay. […] Although the MIC of CZ-58 was “high” compared to MICs of traditional antibiotics, the efficacy against biofilms was promising.

Assay [8] deals with MRSA. Put plainly: MIC, microdilution CLSI M26-A (Example 2). Type of assay: cell-based. As to conditions: Staphylococcus aureus, 24 h, read-out: MIC (μg/mL/μM). The method, then: The second test determined the minimum inhibitory concentration (MIC) of the compound against MRSA and P. aeruginosa ATCC 27853. […] This definition was consistent with the Clinical and Laboratory Standards Institute (CLSI). More specifically, the microdilution method as outlined in the M26-A CLSI guideline was used. All tests were performed with cation adjusted Mueller Hinton broth.

Setting [9] is: Acinetobacter baumannii, read-out: MICs (μg/mL) II: A. baumannii.

Regarding `NCCCNCCCNCc1ccccc1` [CZ-7, benzylnorspermidine], the MIC in assay [1] is above 5000 µg/mL; in assay [2] (Table 3A c4, group head missing, probably MBEC) it was above 500 µg/mL; in assay [3] (Table 3B c2, group head missing) it was above 5000 µg/mL; in assay [4] (setting [9]) it was above 500 µg/mL; in assay [5] (Table 3A c2, read-out: MICs (μg/mL): P. aeruginosa) it was above 500 µg/mL; in assay [5] (Table 5, read-out: MIC (P. aeruginosa)), above 100 µM. The MIC in assay [6] (setting [9]) was above 5000 µg/mL. Moreover, the “EBEC μg/mL (μM) A. baumannii” value is >10,000 μg/mL in assay [7] (Table 4) and “(>45,180) μM” in assay [7] (Table 4, value in parentheses).
Regarding `NCCCNCCCNCc1cccc(CNCCCNCCCN)c1` [CZ-25, N^1,N^1′-(1,3-phenylenebis(methylene))bis(N3-(3-ammoniopropyl)propane-1,3-diaminium) chloride], the MIC in assay [5] (read-out: MICs (μg/mL): P. aeruginosa, Table 3A c2) worked out at 500 µg/mL. For the same compound, in assay [7] (Table 4), the “EBEC μg/mL (μM) A. baumannii” value is reported as ~7,500 μg/mL.
As for `NCCCNCCCNCc1cc(CNCCCNCCCN)cc(CNCCCNCCCN)c1` [CZ-52, N^1,N^1′,N^1″-(benzene-1,3,5-triyltris(methylene))tris(N^3-(3-aminopropyl)propane-1,3-diamine), hydrochloride salt], the “EBEC μg/mL (μM) A. baumannii” value is ~7,000 μg/mL in assay [7] (Table 4) and “(~14,000) μM” in assay [7] (Table 4, value in parentheses).
`NCCCNCCCNCc1cc(CNCCCNCCCN)cc(-c2ccccc2)c1` [CZ-58, N^1,N^1′-([1,1′-biphenyl]-3,5-diylbis(methylene))bis(N^3-(3-ammoniopropyl)propane-1,3-diaminium) chloride]: in assay [5] (Table 5), the “MIC (P. aeruginosa)” value is recorded as “++ to +++”. Further, the “EBEC μg/mL (μM) A. baumannii” value in assay [7] (Table 4) was determined as 400 µg/mL.
As for `CC(C)CNCCCNCCCNCc1cc(CNCCCNCCCNCC(C)C)cc(-c2ccccc2)c1` [CZ-86, N^1,N^1′-([1,1′-biphenyl]-3,5-diylbis(methylene))bis(N^3-(3-(isobutylamino)propyl)propane-1,3-diamine), hydrochloride salt], the “MIC (P. aeruginosa)” value in assay [5] (Table 5) is “++ to +++”.
`CN[C@H](CC(C)C)C(=O)N[C@H]1C(=O)N[C@@H](CC(N)=O)C(=O)N[C@H]2C(=O)N[C@H]3C(=O)N[C@H](C(=O)N[C@H](C(=O)O)c4cc(O)cc(O)c4-c4cc3ccc4O)[C@H](O)c3ccc(c(Cl)c3)Oc3cc2cc(c3O[C@@H]2O[C@H](CO)[C@@H](O)[C@H](O)[C@H]2O[C@H]2C[C@](C)(N)[C@H](O)[C@H](C)O2)Oc2ccc(cc2Cl)[C@H]1O` [vancomycin, reference compound]: the MIC in assay [2] is above 500 µg/mL; in assay [3], above 25000 µg/mL; in assay [8], 10 µg/mL and 6.73 µM.
For the compound “Polymyxin B sulfate [reference compound]”, the “MICs (μg/mL) II: A. baumannii” value in assay [4] is 50 µg/mL; in assay [6] it was 1,000 μg/mL. The “EBEC μg/mL (μM) A. baumannii” value in assay [7] (Table 4) is 1,000 μg/mL; in assay [7] (Table 4, value in parentheses), “(722) μM”.
